# Laboratory results published in ChEMBL document CHEMBL5465560, “Selectivity Literature for EUbOPEN Chemogenomic Library” (2024).
# Key:
# [1] = target: Serine/threonine-protein kinase PAK 1 (Homo sapiens) (UniProt Q13153); test: Selectivity interaction (KinomeScan (DiscoverX)) EUB0000595a PAK1; settings: at 10 µM
# [2] = target: Calcium/calmodulin-dependent protein kinase kinase 2 (Homo sapiens) (UniProt Q96RR4); test: Selectivity interaction (KinomeScan (DiscoverX)) EUB0000595a CAMKK2; settings: at 10 µM
# Chain of Calcium/calmodulin-dependent protein kinase kinase 2 (Homo sapiens) (Q96RR4 2-588 limits assumed): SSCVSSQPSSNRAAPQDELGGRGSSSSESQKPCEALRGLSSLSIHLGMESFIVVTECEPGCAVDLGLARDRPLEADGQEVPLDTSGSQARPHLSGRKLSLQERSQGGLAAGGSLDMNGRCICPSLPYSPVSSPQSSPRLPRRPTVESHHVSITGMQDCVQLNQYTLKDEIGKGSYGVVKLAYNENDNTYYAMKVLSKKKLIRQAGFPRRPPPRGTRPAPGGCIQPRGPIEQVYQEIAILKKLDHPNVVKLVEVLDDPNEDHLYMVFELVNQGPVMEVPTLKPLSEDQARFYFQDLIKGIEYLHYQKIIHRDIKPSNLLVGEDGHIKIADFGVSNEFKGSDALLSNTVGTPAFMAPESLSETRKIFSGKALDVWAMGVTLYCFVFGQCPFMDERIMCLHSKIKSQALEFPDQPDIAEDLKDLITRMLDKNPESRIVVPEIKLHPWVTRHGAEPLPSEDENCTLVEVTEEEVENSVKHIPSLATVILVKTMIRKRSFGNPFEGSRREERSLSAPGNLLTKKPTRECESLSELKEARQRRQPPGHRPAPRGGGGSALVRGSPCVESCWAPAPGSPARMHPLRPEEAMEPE
# [3] = target: Serine/threonine-protein kinase B-raf (Homo sapiens) (UniProt P15056); test: (§1) Selectivity interaction (KinomeScan (DiscoverX)) EUB0001079a BRAF; settings: at 1 µM
# Chain of Serine/threonine-protein kinase B-raf (Homo sapiens) (P15056 whole entry): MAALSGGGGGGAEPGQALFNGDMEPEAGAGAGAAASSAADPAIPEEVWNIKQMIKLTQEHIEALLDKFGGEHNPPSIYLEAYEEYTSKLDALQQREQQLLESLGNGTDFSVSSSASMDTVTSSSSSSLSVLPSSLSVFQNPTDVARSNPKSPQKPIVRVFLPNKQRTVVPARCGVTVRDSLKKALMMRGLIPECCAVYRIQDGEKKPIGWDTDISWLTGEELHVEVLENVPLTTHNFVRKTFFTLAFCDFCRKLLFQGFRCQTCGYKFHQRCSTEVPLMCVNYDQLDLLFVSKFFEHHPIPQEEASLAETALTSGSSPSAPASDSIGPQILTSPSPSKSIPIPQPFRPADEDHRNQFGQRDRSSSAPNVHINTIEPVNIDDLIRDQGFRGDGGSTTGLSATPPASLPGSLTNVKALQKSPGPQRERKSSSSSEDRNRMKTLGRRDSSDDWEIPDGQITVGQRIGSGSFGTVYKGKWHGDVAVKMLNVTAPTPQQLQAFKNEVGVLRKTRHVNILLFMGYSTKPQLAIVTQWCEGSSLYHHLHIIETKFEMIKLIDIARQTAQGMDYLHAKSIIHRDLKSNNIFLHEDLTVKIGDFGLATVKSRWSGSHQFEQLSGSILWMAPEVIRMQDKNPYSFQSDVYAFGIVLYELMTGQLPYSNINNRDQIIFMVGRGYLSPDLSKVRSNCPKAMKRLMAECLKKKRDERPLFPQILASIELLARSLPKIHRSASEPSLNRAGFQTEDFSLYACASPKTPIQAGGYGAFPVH
# [4] = tested on: Serine/threonine-protein kinase B-raf (Homo sapiens), P15056 [V600E]; test: as §1; settings: at 1 µM
# Chain of Serine/threonine-protein kinase B-raf (Homo sapiens), P15056 [V600E] (P15056 whole entry V600E): as the sequence (P15056 whole entry) above, with V600E counted along it
# [5] = target: Glycogen synthase kinase-3 beta (Homo sapiens, UniProt P49841); test: Selectivity interaction (KinomeScan (DiscoverX)) EUB0001079a GSK3B; settings: at 1 µM
# Chain of Glycogen synthase kinase-3 beta (P49841 whole entry, looked up): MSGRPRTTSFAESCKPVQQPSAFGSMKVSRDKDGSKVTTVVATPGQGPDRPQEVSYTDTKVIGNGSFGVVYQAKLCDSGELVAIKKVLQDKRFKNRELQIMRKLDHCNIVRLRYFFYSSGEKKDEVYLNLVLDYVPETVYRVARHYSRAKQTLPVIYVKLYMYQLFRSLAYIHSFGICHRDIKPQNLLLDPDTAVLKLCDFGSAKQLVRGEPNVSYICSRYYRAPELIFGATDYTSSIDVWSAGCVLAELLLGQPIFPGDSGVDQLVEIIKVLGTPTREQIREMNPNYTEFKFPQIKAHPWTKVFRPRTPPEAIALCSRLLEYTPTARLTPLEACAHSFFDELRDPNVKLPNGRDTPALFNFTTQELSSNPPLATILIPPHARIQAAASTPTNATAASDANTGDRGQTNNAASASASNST
# [6] = target: Tyrosine-protein kinase Blk (Homo sapiens) (UniProt P51451); test: Selectivity interaction (KinomeScan (DiscoverX)) EUB0001079a BLK; settings: at 1 µM
# [7] = target: T1, Eukaryotic elongation factor 2 kinase (Homo sapiens) (UniProt O00418); test: Selectivity interaction (Kinase panel (Z-LYTE Assay)) EUB0001632a EEF2K; settings: at 10 µM
# T1 sequence (whole entry): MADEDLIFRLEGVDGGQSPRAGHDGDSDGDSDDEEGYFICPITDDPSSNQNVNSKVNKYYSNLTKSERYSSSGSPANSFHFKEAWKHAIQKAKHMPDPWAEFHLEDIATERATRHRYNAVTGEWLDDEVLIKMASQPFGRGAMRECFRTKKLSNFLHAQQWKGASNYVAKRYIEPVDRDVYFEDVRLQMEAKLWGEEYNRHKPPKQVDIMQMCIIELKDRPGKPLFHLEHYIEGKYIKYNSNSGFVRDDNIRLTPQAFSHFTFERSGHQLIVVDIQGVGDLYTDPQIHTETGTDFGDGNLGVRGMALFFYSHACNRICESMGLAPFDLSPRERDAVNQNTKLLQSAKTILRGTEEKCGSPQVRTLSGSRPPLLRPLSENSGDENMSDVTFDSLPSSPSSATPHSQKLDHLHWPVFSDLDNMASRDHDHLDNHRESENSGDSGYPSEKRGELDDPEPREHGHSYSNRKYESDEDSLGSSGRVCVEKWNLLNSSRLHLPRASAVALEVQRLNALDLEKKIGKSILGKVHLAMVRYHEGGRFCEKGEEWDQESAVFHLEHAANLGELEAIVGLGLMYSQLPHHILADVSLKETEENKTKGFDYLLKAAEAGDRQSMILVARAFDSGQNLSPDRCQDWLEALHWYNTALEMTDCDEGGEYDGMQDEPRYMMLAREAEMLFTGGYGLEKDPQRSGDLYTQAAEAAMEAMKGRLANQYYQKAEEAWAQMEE
# [8] = target: T2, Ephrin type-B receptor 4 (Homo sapiens) (UniProt P54760); test: Selectivity interaction (Kinase screening (Nanosyn)) EUB0000604a EPHB4
# T2 sequence (whole entry): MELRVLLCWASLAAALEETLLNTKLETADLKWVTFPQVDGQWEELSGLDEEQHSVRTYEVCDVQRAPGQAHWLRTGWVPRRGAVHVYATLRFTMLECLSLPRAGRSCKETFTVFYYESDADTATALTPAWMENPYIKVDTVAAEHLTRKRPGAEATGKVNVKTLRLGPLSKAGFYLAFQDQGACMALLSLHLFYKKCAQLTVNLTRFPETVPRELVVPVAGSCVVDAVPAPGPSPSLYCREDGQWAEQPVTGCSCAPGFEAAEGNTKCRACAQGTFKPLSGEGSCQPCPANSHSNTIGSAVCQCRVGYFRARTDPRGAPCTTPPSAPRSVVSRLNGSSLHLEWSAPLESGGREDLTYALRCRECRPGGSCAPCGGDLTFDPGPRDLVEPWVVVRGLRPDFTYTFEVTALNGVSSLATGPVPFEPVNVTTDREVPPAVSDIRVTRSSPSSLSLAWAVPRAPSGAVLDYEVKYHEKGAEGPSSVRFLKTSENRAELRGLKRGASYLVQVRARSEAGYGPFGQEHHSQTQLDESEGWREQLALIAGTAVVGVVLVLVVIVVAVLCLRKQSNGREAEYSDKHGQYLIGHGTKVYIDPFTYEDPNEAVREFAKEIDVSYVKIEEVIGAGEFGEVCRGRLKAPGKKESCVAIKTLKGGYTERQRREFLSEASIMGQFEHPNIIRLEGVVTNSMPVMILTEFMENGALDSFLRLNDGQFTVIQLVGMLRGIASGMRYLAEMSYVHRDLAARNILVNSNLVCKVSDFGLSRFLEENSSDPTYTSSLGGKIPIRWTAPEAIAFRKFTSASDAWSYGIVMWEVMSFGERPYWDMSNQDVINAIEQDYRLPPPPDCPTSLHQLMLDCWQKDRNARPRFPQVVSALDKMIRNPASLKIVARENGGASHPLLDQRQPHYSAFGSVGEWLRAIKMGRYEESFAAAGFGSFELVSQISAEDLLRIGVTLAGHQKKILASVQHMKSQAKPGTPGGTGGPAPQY
# [9] = target: Maternal embryonic leucine zipper kinase (Homo sapiens) (UniProt Q14680); test: Selectivity interaction (KinomeScan (DiscoverX)) EUB0001049a MELK; settings: at 1 µM
# Chain of Maternal embryonic leucine zipper kinase (Homo sapiens) (Q14680 whole entry, looked up): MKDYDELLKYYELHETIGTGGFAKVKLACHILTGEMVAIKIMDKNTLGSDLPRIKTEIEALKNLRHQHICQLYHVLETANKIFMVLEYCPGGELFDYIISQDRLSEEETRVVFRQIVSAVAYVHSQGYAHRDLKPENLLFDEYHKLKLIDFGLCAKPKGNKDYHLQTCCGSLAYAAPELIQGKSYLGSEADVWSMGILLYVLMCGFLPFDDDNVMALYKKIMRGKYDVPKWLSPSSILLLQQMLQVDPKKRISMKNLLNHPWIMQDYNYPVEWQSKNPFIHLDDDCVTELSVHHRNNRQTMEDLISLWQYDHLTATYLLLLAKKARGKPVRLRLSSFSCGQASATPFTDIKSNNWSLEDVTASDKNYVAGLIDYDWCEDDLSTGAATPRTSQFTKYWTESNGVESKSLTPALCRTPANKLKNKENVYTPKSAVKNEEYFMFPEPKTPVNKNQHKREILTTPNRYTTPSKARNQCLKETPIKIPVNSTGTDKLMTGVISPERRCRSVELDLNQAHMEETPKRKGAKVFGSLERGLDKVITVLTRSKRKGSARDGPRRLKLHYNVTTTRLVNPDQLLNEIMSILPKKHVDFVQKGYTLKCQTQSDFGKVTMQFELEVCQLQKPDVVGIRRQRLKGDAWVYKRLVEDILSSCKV
# [10] = target: Dual specificity tyrosine-phosphorylation-regulated kinase 1A (Homo sapiens, UniProt Q13627); test: Selectivity interaction (KinomeScan (DiscoverX)) EUB0001550a DYRK1A; settings: at 1 µM
# [11] = target: Tyrosine-protein kinase Fes/Fps (Homo sapiens) (UniProt P07332); test: Selectivity interaction (Upstate Kinase Profiler service (Millipore)) EUB0000056c FES; settings: at 1 µM
# Chain of Tyrosine-protein kinase Fes/Fps (Homo sapiens) (P07332 whole entry): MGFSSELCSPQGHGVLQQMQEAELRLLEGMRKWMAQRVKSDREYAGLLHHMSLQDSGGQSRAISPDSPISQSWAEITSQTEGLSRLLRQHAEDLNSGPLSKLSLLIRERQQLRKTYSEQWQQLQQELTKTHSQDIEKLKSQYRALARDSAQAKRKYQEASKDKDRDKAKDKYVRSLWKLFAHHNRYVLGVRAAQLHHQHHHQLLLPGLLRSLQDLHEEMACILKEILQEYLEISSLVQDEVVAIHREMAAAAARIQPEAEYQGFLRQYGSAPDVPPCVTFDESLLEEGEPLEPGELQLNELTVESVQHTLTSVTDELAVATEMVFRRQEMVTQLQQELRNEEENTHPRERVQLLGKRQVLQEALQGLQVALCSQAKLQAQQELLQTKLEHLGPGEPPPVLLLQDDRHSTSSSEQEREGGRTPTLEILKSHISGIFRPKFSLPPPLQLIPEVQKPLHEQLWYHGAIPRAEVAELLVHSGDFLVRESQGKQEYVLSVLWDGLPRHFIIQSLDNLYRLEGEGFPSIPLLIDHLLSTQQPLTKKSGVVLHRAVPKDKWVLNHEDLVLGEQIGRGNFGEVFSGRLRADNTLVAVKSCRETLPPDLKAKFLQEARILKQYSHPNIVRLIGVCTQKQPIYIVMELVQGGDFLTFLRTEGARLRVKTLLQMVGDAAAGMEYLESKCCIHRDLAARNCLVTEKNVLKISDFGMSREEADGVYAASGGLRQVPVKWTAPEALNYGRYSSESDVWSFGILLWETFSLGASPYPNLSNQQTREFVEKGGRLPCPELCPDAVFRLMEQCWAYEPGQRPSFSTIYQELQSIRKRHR
# [12] = target: Ribosomal protein S6 kinase alpha-2 (Homo sapiens) (UniProt Q15349); test: Selectivity interaction (ActivX KiNativ screen (kinase selectivity in THP-1 cell lysates)) EUB0000639a RPS6KA2; assay type: subcellular; settings: lysate, at 5 µM
# [13] = target: T3, Dual specificity mitogen-activated protein kinase kinase 7 (Homo sapiens) (UniProt O14733); test: Selectivity interaction (KinomeScan (DiscoverX)) EUB0000655a MAP2K7; settings: at 10 µM
# T3 sequence (whole entry): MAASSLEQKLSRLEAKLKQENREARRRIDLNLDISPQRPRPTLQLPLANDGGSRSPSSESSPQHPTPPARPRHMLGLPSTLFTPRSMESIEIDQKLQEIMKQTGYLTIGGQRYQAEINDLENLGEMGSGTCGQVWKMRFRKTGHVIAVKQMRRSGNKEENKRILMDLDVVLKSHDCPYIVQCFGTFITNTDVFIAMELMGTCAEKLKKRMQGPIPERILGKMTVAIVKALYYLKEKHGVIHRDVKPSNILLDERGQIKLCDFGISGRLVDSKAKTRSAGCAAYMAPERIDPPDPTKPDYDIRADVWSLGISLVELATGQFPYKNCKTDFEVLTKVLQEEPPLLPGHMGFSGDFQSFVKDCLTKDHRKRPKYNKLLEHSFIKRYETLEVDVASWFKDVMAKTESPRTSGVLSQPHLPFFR
# [14] = target: Fibroblast growth factor receptor 2 (Homo sapiens) (UniProt P21802); test: Selectivity interaction (KinomeScan (DiscoverX)) EUB0000655a FGFR2; settings: at 10 µM
# Chain of Fibroblast growth factor receptor 2 (Homo sapiens) (P21802 22-821 limits assumed): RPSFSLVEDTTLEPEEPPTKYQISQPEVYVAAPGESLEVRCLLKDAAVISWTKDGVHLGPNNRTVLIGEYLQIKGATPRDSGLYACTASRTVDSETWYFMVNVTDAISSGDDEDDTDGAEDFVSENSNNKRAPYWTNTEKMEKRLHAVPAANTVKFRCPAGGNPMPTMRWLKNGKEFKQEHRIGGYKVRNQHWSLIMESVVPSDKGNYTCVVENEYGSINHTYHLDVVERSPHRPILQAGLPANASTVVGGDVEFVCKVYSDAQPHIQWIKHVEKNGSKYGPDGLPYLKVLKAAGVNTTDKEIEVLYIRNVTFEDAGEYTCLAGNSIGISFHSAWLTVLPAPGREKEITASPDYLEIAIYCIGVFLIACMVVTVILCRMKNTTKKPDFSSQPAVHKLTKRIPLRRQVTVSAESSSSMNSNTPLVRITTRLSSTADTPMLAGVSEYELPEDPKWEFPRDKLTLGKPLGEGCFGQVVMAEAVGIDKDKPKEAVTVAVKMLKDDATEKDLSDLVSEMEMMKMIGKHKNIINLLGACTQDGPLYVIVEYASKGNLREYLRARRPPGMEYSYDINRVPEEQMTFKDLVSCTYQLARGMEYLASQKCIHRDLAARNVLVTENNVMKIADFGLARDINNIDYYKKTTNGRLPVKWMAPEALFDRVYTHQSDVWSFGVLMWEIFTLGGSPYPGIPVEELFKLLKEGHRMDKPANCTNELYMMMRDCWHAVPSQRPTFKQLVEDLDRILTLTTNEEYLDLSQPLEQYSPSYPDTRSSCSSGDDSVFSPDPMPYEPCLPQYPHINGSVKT
# Chain of Serine/threonine-protein kinase PAK 1 (Homo sapiens) (Q13153 whole entry): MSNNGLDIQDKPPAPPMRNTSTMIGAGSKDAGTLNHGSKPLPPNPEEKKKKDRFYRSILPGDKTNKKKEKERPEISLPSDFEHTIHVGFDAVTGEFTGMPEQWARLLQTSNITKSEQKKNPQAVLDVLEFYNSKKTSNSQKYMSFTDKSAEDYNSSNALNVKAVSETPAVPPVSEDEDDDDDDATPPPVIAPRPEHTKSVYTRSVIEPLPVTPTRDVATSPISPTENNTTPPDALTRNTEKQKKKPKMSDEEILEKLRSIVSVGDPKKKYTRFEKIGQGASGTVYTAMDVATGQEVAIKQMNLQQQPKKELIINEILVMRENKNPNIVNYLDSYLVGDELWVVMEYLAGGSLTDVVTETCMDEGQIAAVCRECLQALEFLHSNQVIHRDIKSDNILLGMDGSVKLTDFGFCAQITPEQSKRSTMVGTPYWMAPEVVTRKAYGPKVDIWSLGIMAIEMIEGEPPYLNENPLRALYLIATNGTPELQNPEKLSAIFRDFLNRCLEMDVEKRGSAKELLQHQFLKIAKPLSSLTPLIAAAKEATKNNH
smiles,measurement,setting,value
COCC(=O)NC/C=C/c1ccc2ncnc(Nc3ccc(Oc4ccc(C)nc4)c(C)c3)c2c1 [CP-724714],% of control,[1],81%
same,% of control,[2],85%
Nc1cnc(N2CCc3cc(S(=O)(=O)Nc4c(F)cc(Cl)cc4F)cc(N4CCCC4=O)c32)nc1 [TP-020n],% of control,[3],98%
same,% of control,[4],100%
same,% of control,[5],100%
same,% of control,[6],100%
Cn1cc(-n2cnc3c(NCc4nc5cc(Cl)c(Cl)cc5[nH]4)nc(N4CCOCC4)nc32)cn1,% of control,[7],1.73%
Cc1cnc(Nc2ccc(F)cc2Cl)nc1-c1c[nH]c(C(=O)N[C@H](CO)c2cccc(Cl)c2)c1,% of inhibition,[8],0%
COc1cc(Nc2nc(C)cc(-c3cnn4nc(OC)ccc34)n2)cc(C(F)(F)F)c1,% of control,[9],97%
CN(C)CC#Cc1ccc2[nH]c3c(c2c1)-c1nc(N)ncc1CCC3,% of control,[10],9.9%
Cc1ccc(-c2ccc3c(ccc4sc5c(c43)NC[C@@H](C)NC5=O)n2)cn1,% of inhibition,[11],-3%
CC[C@@H]1[C@H](F)C(=O)N[C@@H]1COc1nccc2cc(C(N)=O)c(OC)cc12 [ZIMLOVISERTIB],% of inhibition,[12],6.4%
CN(C)CCOc1ccc(-c2nc(-c3ccncc3)c(-c3ccc4c(c3)CC/C4=N\O)[nH]2)cc1,% of control,[13],94%
same,% of control,[14],100%
